Experimental data reported in patent publication US10947216B2, “Amide compounds and method for making and using” (Rigel Pharmaceuticals, Inc., priority 2016, dated 2021).
pEC50: −log10 of the molar value. Counter-ions that a name gives are not always drawn. Like-named read-outs stand apart in the source and are kept apart here.

System: IL-23p19
Assay: LPS Induced IL23p19 in THP-1 Cells (with IFNγ Primed) Assay
Assay type: cell-based, human
Details: IFNγ (50 ng/mL) primed, 1 hour compound pre-incubation, LPS 1 ug/mL 18 hours, 10 pt, read-out: IL23-p19 ELISA, THP1-IFNy, LPS, 10 pt EC50
Experimental: LPS Induced IL23p19 in THP-1 Cells (with IFNγ Primed) Assay
Method THP-1 Cells Stimulation:
On day 1, 50K/well THP-1 cells were seeded and primed with IFNγ (50 ng/mL) in 384-well plates for about 18 hours in RPMI media with 10% FBS. […] 50 μL/well 2× compound was added to 50 μL/well THP-1 cells (with IFNγ primed) in duplicate in 384 well tissue culture plates. […] Day 3, after stimulation for 18 hours at 37° C., 5% CO2, the assay plate was centrifuged and 70 μL/well supernatant was harvested. IL-23p19 protein in 70 μL/well of supernatant was measured by sandwich ELISA, and 25 μl/well Cell Titer Glo reagent was added to the remaining cells to measure compound toxicity.
Human IL-23p19 Sandwich ELISA:
Maxisorp immuno ELISA plates were pre-coated with 25 μL/well of anti-IL-23p19 capture antibody (2.5 ug/mL) in PBS overnight at room temperature. After washing with 1×PBST, the plates were blocked using 100 μL/well of 1% BSA in PBS for 2 hours at room temperature. The plates were washed three times with 1×PBST and 70 μL/well supernatant were added. The plates were incubated at room temperature for 2 hours with shaking and washed three times with 1×PBST. 25 μL/well of biotin labeled anti-IL-12(p40/p70) detection antibody (100 ng/mL) in PBS with 1% BSA was added and the plates were incubated at room temperature for 2 hours with shaking. After washing three times with 1×PBST, 25 μL/well of streptavidin-HRP (1:200) in PBS with 1% BSA was added and the plates were incubated at room temperature for 20 minutes with shaking. The plates were washed three times with 1×PBST and 25 μL/well of Super Signal ELISA Pico Chemiluminescent Substrate were added. The plates were read with a luminometer, and the chemiluminescence values were entered into Athena (Rigel) for curve fitting, EC50 calculation, and database storage.

[1] = Homo sapiens, THP-1, THP-1 cells

SMILES	pEC50 [1]	pEC50 (THP-1 cells, dihydrochloride)
Cn1cc(NC(=O)c2cccc(-c3cncc(C(C)(C)O)c3)n2)c(-c2ccccn2)n1 [Compound I-14, 5′-(2-hydroxypropan-2-yl)-N-(1-methyl-3-(pyridin-2-yl)-1H-pyrazol-4-yl)-[2,3′-bipyridine]-6-carboxamide]	5.82	
Cn1cc(NC(=O)c2cccc(-c3cncc(C(F)(F)F)c3)n2)c(-c2ccccn2)n1 [Compound I-17, N-(1-methyl-3-(pyridin-2-yl)-1H-pyrazol-4-yl)-5′-(trifluoromethyl)-[2,3′-bipyridine]-6-carboxamide]	4.23	
Cn1cc(NC(=O)c2cccc(-c3cncc(C#N)c3)n2)c(-c2ccccn2)n1 [Compound I-4, 5′-cyano-N-(1-methyl-3-(pyridin-2-yl)-1H-pyrazol-4-yl)-[2,3′-bipyridine]-6-carboxamide]	2.72	
Cn1cc(NC(=O)c2cccc(-c3cccc(N)c3)n2)c(-c2ccccn2)n1 [Compound I-57, 6-(3-aminophenyl)-N-(1-methyl-3-(pyridin-2-yl)-1H-pyrazol-4-yl)picolinamide]	5.28	
Cn1cc(NC(=O)c2cccc(-c3ccc4cc[nH]c4c3)n2)c(-c2ccccn2)n1 [Compound I-47, 6-(1H-indol-6-yl)-N-(1-methyl-3-(pyridin-2-yl)-1H-pyrazol-4-yl)picolinamide]	5.44	
CCN(CC)CCn1cc(NC(=O)c2cccc(-c3ccncc3)n2)c(-c2ccccn2)n1 [Compound I-104, N-(1-(2-(diethylamino)ethyl)-3-(pyridin-2-yl)-1H-pyrazol-4-yl)-[2,4′-bipyridine]-6-carboxamide]	4.13	
CNc1cccc(-c2cccc(C(=O)Nc3cn(C)nc3-c3ccccn3)n2)c1 [Compound I-58, N-(1-methyl-3-(pyridin-2-yl)-1H-pyrazol-4-yl)-6-(3-(methylamino)phenyl)picolinamide]	4.82	
Cc1cncc(-c2cccc(C(=O)Nc3cn(C)nc3N3CCCC3)n2)c1 [Compound I-75, 5′-methyl-N-(1-methyl-3-(pyrrolidin-1-yl)-1H-pyrazol-4-yl)-[2,3′-bipyridine]-6-carboxamide]	4.80	
Cn1cc(NC(=O)c2cccc(-c3ccnc(C#N)c3)n2)c(-c2ccccn2)n1 [Compound I-42, 2′-cyano-N-(1-methyl-3-(pyridin-2-yl)-1H-pyrazol-4-yl)-[2,4′-bipyridine]-6-carboxamide]	4.59	
Cn1cc(NC(=O)c2cccc(-c3ccc[nH]3)n2)c(-c2ccccn2)n1 [Compound I-10, N-(1-methyl-3-(pyridin-2-yl)-1H-pyrazol-4-yl)-6-(1H-pyrrol-2-yl)picolinamide]	3.18	
Cn1cc(NC(=O)c2cccc(C3=CCCN(C(=O)OC(C)(C)C)C3)n2)c(-c2ccccn2)n1 [Compound I-64, tert-butyl 6-((1-methyl-3-(pyridin-2-yl)-1H-pyrazol-4-yl)carbamoyl)-5′,6′-dihydro-[2,3′-bipyridine]-1′(2′H)-carboxylate]	4.88	
COc1ccc(-c2cccc(C(=O)Nc3cn(C)nc3-c3ccccn3)n2)cn1 [Compound I-20, 6′-methoxy-N-(1-methyl-3-(pyridin-2-yl)-1H-pyrazol-4-yl)-[2,3′-bipyridine]-6-carboxamide]	3.89	
Cn1cc(NC(=O)c2cccc(-c3cnc4cc[nH]c4c3)n2)c(-c2ccccn2)n1 [Compound I-45, N-(1-methyl-3-(pyridin-2-yl)-1H-pyrazol-4-yl)-6-(1H-pyrrolo[3,2-b]pyridin-6-yl)picolinamide]	5.46	
Cn1cc(NC(=O)c2cccc(-c3cncc(OCC(F)(F)F)c3)n2)c(-c2ccccn2)n1 [Compound I-24, N-(1-methyl-3-(pyridin-2-yl)-1H-pyrazol-4-yl)-5′-(2,2,2-trifluoroethoxy)-[2,3′-bipyridine]-6-carboxamide]	3.99	
Cc1cc(-c2cccc(C(=O)Nc3cn(C)nc3-c3ccccn3)n2)ccn1 [Compound I-15, 2′-methyl-N-(1-methyl-3-(pyridin-2-yl)-1H-pyrazol-4-yl)-[2,4′-bipyridine]-6-carboxamide]	4.20	
Cc1ccc(-c2cccc(C(=O)Nc3cn(C)nc3-c3ccccn3)n2)cc1 [Compound I-50, N-(1-methyl-3-(pyridin-2-yl)-1H-pyrazol-4-yl)-6-(p-tolyl)picolinamide]	5.26	
Cn1cc(NC(=O)c2cccc(-c3cncc(S(C)(=O)=O)c3)n2)c(-c2ccccn2)n1 [Compound I-39, N-(1-methyl-3-(pyridin-2-yl)-1H-pyrazol-4-yl)-5′-(methylsulfonyl)-[2,3′-bipyridine]-6-carboxamide]	5.86	
Cn1cc(NC(=O)c2cccc(C3CCNCC3)n2)c(-c2ccccn2)n1 [Compound I-63, N-(1-methyl-3-(pyridin-2-yl)-1H-pyrazol-4-yl)-6-(piperidin-4-yl)picolinamide]	4.58	

More lines, now with the values ahead:

pEC50 [1]	pEC50 (THP-1 cells, dihydrochloride)	SMILES
6.27		COCCn1cc(NC(=O)c2cccc(-c3cncc(C)c3)n2)c(-c2ccccn2)n1 [Compound I-168, N-(1-(2-methoxyethyl)-3-(pyridin-2-yl)-1H-pyrazol-4-yl)-5′-methyl-[2,3′-bipyridine]-6-carboxamide]
4.62		Cn1cc(NC(=O)c2nccc(Nc3cc[nH]n3)n2)c(-c2ccccn2)n1 [Compound I-128, 4-((1H-pyrazol-3-yl)amino)-N-(1-methyl-3-(pyridin-2-yl)-1H-pyrazol-4-yl)pyrimidine-2-carboxamide]
4.94		COCCOCCn1cc(NC(=O)c2cccc(-c3ccncc3F)n2)c(-c2ccccn2)n1 [Compound I-144, 3′-fluoro-N-(1-(2-(2-methoxyethoxy)ethyl)-3-(pyridin-2-yl)-1H-pyrazol-4-yl)-[2,4′-bipyridine]-6-carboxamide formate]
5.41		O=C(Nc1cn(C(CO)CO)nc1-c1ccccn1)c1cccc(-c2cccnc2)n1 [Compound I-125, N-(1-(1,3-dihydroxypropan-2-yl)-3-(pyridin-2-yl)-1H-pyrazol-4-yl)-[2,3′-bipyridine]-6-carboxamide]
3.88		Cn1cc(NC(=O)c2nccc(Nc3cn(C)nc3-c3ccccn3)n2)c(-c2ccccn2)n1 [Compound I-118, N-(1-methyl-3-(pyridin-2-yl)-1H-pyrazol-4-yl)-4-((1-methyl-3-(pyridin-2-yl)-1H-pyrazol-4-yl)amino)pyrimidine-2-carboxamide]
5.81		O=C(Nc1cn(C2CCOCC2)nc1-c1ccccn1)c1cccc(-c2cn[nH]c2)n1 [Compound I-165, 6-(1H-pyrazol-4-yl)-N-(3-(pyridin-2-yl)-1-(tetrahydro-2H-pyran-4-yl)-1H-pyrazol-4-yl)picolinamide]
5.31		O=C(Nc1c[nH]nc1-c1ccccn1)c1cccc(-c2ccncc2)n1 [Compound I-106, N-(3-(pyridin-2-yl)-1H-pyrazol-4-yl)-[2,4′-bipyridine]-6-carboxamide formate]
3.82		Cn1cc(NC(=O)c2cccc(-c3ccncc3)n2)c(-c2ccccn2)n1 [Compound I-160, N-(1-methyl-3-(pyridin-2-yl)-1H-pyrazol-4-yl)-[2,4′-bipyridine]-6-carboxamide 2,2,2-trifluoroacetate]
	4.55	Cc1cncc(-c2cccc(C(=O)Nc3cn(C)nc3-c3ccc(N4CCOCC4)cn3)n2)c1 [Compound I-176, 5′-methyl-N-(1-methyl-3-(5-morpholinopyridin-2-yl)-1H-pyrazol-4-yl)-[2,3′-bipyridine]-6-carboxamide dihydrochloride]
4.25		COCCOCCn1cc(NC(=O)c2cccc(-c3ccncc3C)n2)c(-c2ccccn2)n1 [Compound I-145, N-(1-(2-(2-methoxyethoxy)ethyl)-3-(pyridin-2-yl)-1H-pyrazol-4-yl)-3′-methyl-[2,4′-bipyridine]-6-carboxamide formate]
4.38		O=C(O)c1cncc(-c2cccc(C(=O)Nc3cn(C4COC4)nc3-c3ccccn3)n2)c1 [Compound I-135, 6-((1-(oxetan-3-yl)-3-(pyridin-2-yl)-1H-pyrazol-4-yl)carbamoyl)-[2,3′-bipyridine]-5′-carboxylic acid]
4.74		O=C(Nc1cn(C(CO)CO)nc1-c1ccccn1)c1cccc(-c2cn[nH]c2)n1 [Compound I-127, N-(1-(1,3-dihydroxypropan-2-yl)-3-(pyridin-2-yl)-1H-pyrazol-4-yl)-6-(1H-pyrazol-4-yl)picolinamide]
4.14		Cc1n[nH]cc1Nc1ccnc(C(=O)Nc2cn(C)nc2-c2ccccn2)n1 [Compound I-129, 4-((3-methyl-1H-pyrazol-4-yl)amino)-N-(1-methyl-3-(pyridin-2-yl)-1H-pyrazol-4-yl)pyrimidine-2-carboxamide]
